Reference: patent US8586611B2 (priority 2005, dated 2013)

What was measured:
Type in all cases: in vivo
[1] = system: Erysiphe graminis f. sp. tritici; test: Test E: wheat powdery mildew, spray the day before inoculation (disease rating, 100 = 100% disease control)
Method in brief: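 Protective test: spores of E. graminis f. sp. tritici dusted on wheat seedlings one day after run-off spraying of test suspension (acetone/water with 250 ppm surfactant; 200 ppm = 500 g/ha). Ratings after 7 days in growth chamber at 20° C, 100 = full control, 0 = none, relative to controls.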

[2] = system: Pseudoperonospora cubensis; test: Test F: cucumber downy mildew, DMSO/acetone/water test suspension, spray the day before inoculation (disease rating, 100 = 100% disease control)
Method in brief: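 Cucumber seedlings inoculated with spores one day after spraying with the test suspension (4% DMSO in acetone/water 30/70; 250 ppm ≈ 250 g/ha). Kept 24 h in saturated air, then 6 days in a growth chamber, both at 20° C. Scored as % disease control versus untreated (100 = full control).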

Plasmopara viticola = test: Test B: grape downy mildew, spray 24 h after inoculation (disease rating, 100 = 100% disease control)
Method in brief: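 This is a curative spray test, applied 24 h after inoculation. Compounds in 50/50 acetone–water with 250 ppm Trem 014 surfactant were sprayed to run-off on P. viticola-infected seedlings, with 200 ppm equating to 500 g/ha. Plants were kept 5 days in a 20 °C growth chamber, then 24 h humid, and scored 0–100 for disease control relative to controls.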

[3] = system: Pseudoperonospora cubensis; test: Test A: cucumber downy mildew, spray the day before inoculation (disease rating, 100 = 100% disease control)
Method in brief: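 Cucumber seedlings were sprayed to run-off with compound suspended in acetone/water containing 250 ppm Trem 014 (200 ppm equated to 500 g/ha), then inoculated with P. cubensis spores the next day. Plants were kept 24 h at 20 °C in saturated humidity, then 6 days at 20 °C, before disease rating relative to controls.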

Phytophthora infestans = test: whole plant or invertebrate; conditions: tomato late blight
[4] = spray the day before inoculation, compounds without asterisk (not 40 or 10 ppm)
[5] = DMSO/acetone/water suspension, spray the day before inoculation, compounds without asterisk
[6] = spray 24 h after inoculation, compounds without asterisk (not 40 or 10 ppm)
[7] = sprayed the day before inoculation, 7 days at 20° C., unmarked compounds (no asterisk, not 40 or 10 ppm)
[8] = DMSO/acetone/water test suspension, sprayed the day before inoculation, unmarked compounds (no asterisk)
[9] = sprayed 24 h after inoculation, unmarked compounds (no asterisk, not 40 or 10 ppm)
[10] = sprayed the day before inoculation, unmarked compounds (no asterisk, not 40 or 10 ppm)

Molecule	Test E disease rating (100 = 100% disease control, 0 = no disease control) [1, 4] [%]	Test F disease rating (100 = 100% disease control, 0 = no disease control) [2, 5] [%]	Test B disease rating (100 = 100% disease control, 0 = no disease control) (Plasmopara viticola; [6]) [%]	Test A disease rating (100 = 100% disease control, 0 = no disease control) [3, 4] [%]	Test C disease rating (100 = 100% disease control, 0 = no disease control) (Phytophthora infestans; [4]) [%]	Test E disease rating (100 = 100% disease control, 0 = no disease control) [1, 7]	Test F disease rating (100 = 100% disease control, 0 = no disease control) [2, 8]	Test B disease rating (100 = 100% disease control, 0 = no disease control) (Plasmopara viticola; [9])	Test A disease rating (100 = 100% disease control, 0 = no disease control) [3, 10]	Test C disease rating (100 = 100% disease control, 0 = no disease control) (Phytophthora infestans; [10])
Cc1cccc(CC(=O)N2CCC(c3nc(C(=O)N(C)[C@H](C)c4ccccc4)cs3)CC2)c1 [compound 36]	91	95	99	100	100	–	–	–	–	–
N-methyl-2-[1-[[5-methyl-3-(trifluoromethyl)-1H-pyrazol-1-yl]acetyl]-4-piperidinyl]-N-[(1R)-1-phenylpropyl]-4-thiazolecarboxamide [Compound 117]	50	86	67	100	96	–	–	–	–	–
N-methyl-2-[1-[[5-methyl-3-(trifluoromethyl)-1H-pyrazol-1-yl]acetyl]-4-piperidinyl]-N-[(1R)-1,2,3,4-tetrahydro-1-naphthalenyl]-4-thiazolecarbothioamide [Compound 289]	0	47	33	100	98	–	–	–	–	–
2-[1-[(3,5-diethyl-1H-pyrazol-1-yl)acetyl]-4-piperidinyl]-N-methyl-N-[(1R)-1,2,3,4-tetrahydro-1-naphthalenyl]-4-thiazolecarboxamide [Compound 209]	0	99	76	100	98	–	–	–	–	–
N#CC(NC(=O)c1csc(C2CCN(C(=O)Cc3cccc(Br)c3)CC2)n1)c1ccccc1 (stereo not drawn) [compound 282]	–	–	–	–	–	0	39	8	55	0
2-[1-[[5-ethyl-3-(trifluoromethyl)-1H-pyrazol-1-yl]acetyl]-4-piperidinyl]-N-methyl-N-[(1R)-1,2,3,4-tetrahydro-1-naphthalenyl]-4-thiazolecarboxamide [Compound 208]	0	99	95	100	100	–	–	–	–	–
COc1ccccc1CC(=O)N1CCC(c2nc(C(=O)N(C)[C@H](C)c3ccccc3)cs2)CC1 [compound 41]	0	82	94	100	100	–	–	–	–	–
N-methyl-2-[1-[[5-methyl-3-(trifluoromethyl)-1H-pyrazol-1-yl]acetyl]-4-piperidinyl]-N-[(1R)-1,2,3,4-tetrahydro-1-naphthalenyl]-2H-1,2,3-triazole-4-carboxamide [Compound 232]	0	93	0	87	95	–	–	–	–	–
CC(C)(NC(=O)c1csc(C2CCN(C(=O)Cc3ccccc3Cl)CC2)n1)c1ccccc1 [compound 263]	–	–	–	–	–	0	0	0	92	15
C[C@H](c1ccccc1)N(C)C(=O)c1csc(C2CCN(C(=O)Cc3ccc(F)c(F)c3)CC2)n1 [compound 38]	55	43	45	0	0	–	–	–	–	–
N-(2,3-dihydro-2,2-dimethyl-1H-inden-1-yl)-N-methyl-2-[1-[[5-methyl-3-(trifluoromethyl)-1H-pyrazol-1-yl]acetyl]-4-piperidinyl]-4-thiazolecarboxamide [Compound 222]	21	100	99	100	99	–	–	–	–	–
C[C@H](c1ccccc1)N(C)C(=O)c1csc(C2CCN(C(=O)Cc3ccc(F)c(Cl)c3)CC2)n1 [compound 35]	0	97	66	88	93	–	–	–	–	–
